What all share (assay type): functional, organism-based
One test deals with Phytophthora cinnamomi. In words: Antimicrobial activity against Phytophthora cinnamomi RSC290 at 6.25 ug/disk after 18 to 24 hrs.
The next test deals with Escherichia coli. As to the kind of experiment: Antimicrobial activity against Escherichia coli RSC2 at 6.25 ug/disk after 18 to 24 hrs.
In another test the test system is Bacillus subtilis. In words: Antimicrobial activity against Bacillus subtilis RSC1 at <12.5 ug/disk after 24 hrs.

This is an account of results in ChEMBL document CHEMBL1146416, “A new glycoside antimicrobial agent from Persoonia linearis x pinifolia” (J Nat Prod, 1997).

The structures appear in SMILES notation. Active and inactive are the calls of the source. The calls are words filed in the database; no cut-off is given here.

In the case of `C=C(C(=O)OC[C@H]1O[C@@H](Oc2ccc(O)cc2)[C@H](O)[C@@H](O)[C@@H]1O)[C@@H](O)CO`, the outcome with Phytophthora cinnamomi and with Escherichia coli was Active. Moreover, in the test with Bacillus subtilis, the outcome was inactive.
